Laboratory results: patent US4272528A, “Phosphonoacetyl aminoacids” (Abbott Laboratories, priority 1980, dated 1981)
Like-named read-outs stand apart in the source and are kept apart here.

Target: herpes DNA polymerase (Human herpesvirus 1, UniProt P04293)
Test: herpes DNA polymerase activity assay
Type: biochemical
Settings: for % Inhibition at Drug Level 1.666 μg/ml / % Inhibition at Drug Level 16.6 μg/ml / % Inhibition at Drug Level 166 μg/ml: fixed dilution
Protocol: The above compounds were tested for herpes DNA polymerase activity in the manner shown in Example 9 of U.S. Pat. No. 4,138,432. The assay, using fixed dilutions of the above compounds, produced the following results:
When variable solution concentrations were used, the results were as follows: […]

[1] = variable solution concentrations, read-out: ID50 (the source's name) (converted)

herpes DNA polymerase, sequence (P04293 whole entry): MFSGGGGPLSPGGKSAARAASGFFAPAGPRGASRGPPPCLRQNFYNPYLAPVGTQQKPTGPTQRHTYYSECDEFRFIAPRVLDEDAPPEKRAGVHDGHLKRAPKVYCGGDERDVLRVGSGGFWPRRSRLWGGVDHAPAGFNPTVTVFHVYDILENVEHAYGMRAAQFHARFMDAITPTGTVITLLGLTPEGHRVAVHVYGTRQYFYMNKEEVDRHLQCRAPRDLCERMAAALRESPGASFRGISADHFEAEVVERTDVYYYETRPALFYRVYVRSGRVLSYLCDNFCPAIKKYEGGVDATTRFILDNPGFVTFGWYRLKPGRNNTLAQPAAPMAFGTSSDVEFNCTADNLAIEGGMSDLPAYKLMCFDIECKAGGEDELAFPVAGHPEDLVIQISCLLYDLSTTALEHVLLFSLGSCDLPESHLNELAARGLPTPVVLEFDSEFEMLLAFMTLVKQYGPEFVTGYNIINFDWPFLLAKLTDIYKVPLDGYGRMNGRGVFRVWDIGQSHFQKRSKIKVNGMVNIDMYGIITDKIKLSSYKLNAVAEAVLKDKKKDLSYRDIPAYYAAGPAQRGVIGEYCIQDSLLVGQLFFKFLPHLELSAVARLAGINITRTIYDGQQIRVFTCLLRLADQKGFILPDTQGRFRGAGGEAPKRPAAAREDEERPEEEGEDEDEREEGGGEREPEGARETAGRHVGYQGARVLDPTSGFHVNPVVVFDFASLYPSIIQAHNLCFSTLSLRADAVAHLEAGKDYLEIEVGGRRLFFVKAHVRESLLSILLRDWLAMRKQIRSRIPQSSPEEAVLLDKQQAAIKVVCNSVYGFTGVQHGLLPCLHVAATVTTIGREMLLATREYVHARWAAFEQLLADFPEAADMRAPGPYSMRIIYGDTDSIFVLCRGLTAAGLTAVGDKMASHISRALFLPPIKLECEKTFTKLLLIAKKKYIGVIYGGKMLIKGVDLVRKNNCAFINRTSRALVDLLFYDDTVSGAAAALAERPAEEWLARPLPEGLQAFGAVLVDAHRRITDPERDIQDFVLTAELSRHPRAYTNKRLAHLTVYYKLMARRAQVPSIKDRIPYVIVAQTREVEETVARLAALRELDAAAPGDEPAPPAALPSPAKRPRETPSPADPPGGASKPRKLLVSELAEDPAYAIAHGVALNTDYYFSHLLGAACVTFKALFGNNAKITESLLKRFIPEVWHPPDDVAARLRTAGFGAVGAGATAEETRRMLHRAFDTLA

SMILES	IC50 [µM]	% Inhibition at Drug Level 1.666 μg/ml [%]	% Inhibition at Drug Level 16.6 μg/ml [%]	% Inhibition at Drug Level 166 μg/ml [%]	IC50 [1] [µM]
C[C@@H](NC(=O)CP(=O)(O)O)C(=O)O [Example 2 (D), PAA-D-Ala]	31.3	19	68	87	
C[C@H](NC(=O)CP(=O)(O)O)C(=O)O [Example 2 (L), PAA-L-Ala]				59	
O=C(O)C[C@H](NC(=O)CP(=O)(O)O)C(=O)O [PAA-L-Asp, reference compound]					141
O=C(O)CCNC(=O)CP(=O)(O)O [Example 3, PAA-β-Ala]	50.2	15	59	88	
O=C(O)CP(=O)(O)O [PAA-Na, reference compound]		82	98	99	
N=C(N)NCCCC(NC(=O)CP(=O)(O)O)C(=O)O (stereo not shown) [PAA-Arg, reference compound]					203
O=C(O)CNC(=O)CP(=O)(O)O [Example 1, PAA-Gly]	28.9	33	56	72	
O=C(O)CC(NC(=O)CNC(=O)CP(=O)(O)O)C(=O)O (stereo not shown) [Example 4, PAA-Gly-Asp]		39	77	93	10.6
